One assay deals with T1, NLRP3 inflammasome (Homo sapiens, UniProt Q96P20).
T1 construct: endogenous in cells; host or cells: THP-1 monocytic cells
Put plainly: IL-1β secretion assay (NLRP3 IC50) in LPS-primed, nigericin-activated THP-1 cells, HTRF. It counts as cell-based. Conditions: monocytic THP-1 cells; LPS 10 ng/mL 3 h priming, then compound + nigericin 10 μM 2 h; relative IC50, 10 concentrations, geometric mean. Put shortly: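 THP-1 cells primed with LPS 10 ng/mL for 3 h at 37° C., then compound (10-point 1:3 dilution, 0.1% DMSO) added with 10 μM nigericin for 2 h. Supernatant IL-1β measured by HTRF; relative IC50 from a 4-parameter logistic fit, reported as geometric mean.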
A general note: TR-FRET usually uses a lanthanide donor and a delayed reading to cut background.

The test system of assay [1] is NF-kB pathway (TNF-α secretion by THP-1 cells). The assay is described as follows: TNF-α secretion assay in LPS-stimulated THP-1 cells, Lumit immunoassay. It counts as cell-based, human. Conditions: Homo sapiens, THP-1, 3 h, monocytic THP-1 cells, LPS 10 ng/mL, relative IC50, 10 concentrations, geometric mean. On the procedure:
Monocytic THP-1 cells were maintained in RPMI 1640 media (Gibco 21875)+10% FBS, (Gibco 10500)+1% penicillin/streptomycin (Gibco 15140-122). Cells were then plated at 40,000 cells per well in 384-well cell culture plates (Corning 3542) and maintained with RPMI1640 (Gibco 11835)+5% FBS, (Gibco 10500). Experimental compounds were prepared and added as described above. TNF-α secretion was triggered by the addition of 10 ng/mL LPS (invivoGen, tlrl-3pelps) and cells were incubated for 3 hours. TNF-α levels were monitored directly in the cells plate using an Lumit assay (Lumit TNFa-Human Immunoassay—Promega W6051) according to manufacturers' instructions.
Data were expressed as percentage of inhibition (I %) as compared to a maximum signal control containing no small molecule (I %=0%) according to the formula: 1%=(1−((Sample−Min))/((Max−Min)))×100, where: • Sample: Signal obtained in the presence of each compound tested, • Max: Maximum signal in the absence of compound added, • Min: Minimum or background signal obtained in the absence of activation signal.
Relative IC50 (IC50 rel) were obtained from a dose response curve with 10 concentrations. Final IC50 rels are expressed as the geometric mean.
Relative IC50 values were estimated with Biost@t-SPEED v2.4 internal software based on SAS system using the 4-parameter logistic model according to Ratkovsky and Reedy (D. A. Ratkovsky, T. J. Reedy, Choosing near-linear parameters in the four parameters logistic model radioligands and related assays. Biometrics, 42 (1986), 575-582): Y=A+C/((1+exp(−B*(log(X)−M)))), where: • A: Lower asymptote (BOTTOM), • A+C: Upper asymptote (TOP), • M: the logarithm of the concentration estimated at the inflexion point (the logarithm of the relative IC50), • B: Slope at the inflexion point of the curve.

For orientation: IC50 means the concentration that gives 50% inhibition.

Counter-ions that a name gives are not always drawn.

T1 sequence (Q96P20 whole entry): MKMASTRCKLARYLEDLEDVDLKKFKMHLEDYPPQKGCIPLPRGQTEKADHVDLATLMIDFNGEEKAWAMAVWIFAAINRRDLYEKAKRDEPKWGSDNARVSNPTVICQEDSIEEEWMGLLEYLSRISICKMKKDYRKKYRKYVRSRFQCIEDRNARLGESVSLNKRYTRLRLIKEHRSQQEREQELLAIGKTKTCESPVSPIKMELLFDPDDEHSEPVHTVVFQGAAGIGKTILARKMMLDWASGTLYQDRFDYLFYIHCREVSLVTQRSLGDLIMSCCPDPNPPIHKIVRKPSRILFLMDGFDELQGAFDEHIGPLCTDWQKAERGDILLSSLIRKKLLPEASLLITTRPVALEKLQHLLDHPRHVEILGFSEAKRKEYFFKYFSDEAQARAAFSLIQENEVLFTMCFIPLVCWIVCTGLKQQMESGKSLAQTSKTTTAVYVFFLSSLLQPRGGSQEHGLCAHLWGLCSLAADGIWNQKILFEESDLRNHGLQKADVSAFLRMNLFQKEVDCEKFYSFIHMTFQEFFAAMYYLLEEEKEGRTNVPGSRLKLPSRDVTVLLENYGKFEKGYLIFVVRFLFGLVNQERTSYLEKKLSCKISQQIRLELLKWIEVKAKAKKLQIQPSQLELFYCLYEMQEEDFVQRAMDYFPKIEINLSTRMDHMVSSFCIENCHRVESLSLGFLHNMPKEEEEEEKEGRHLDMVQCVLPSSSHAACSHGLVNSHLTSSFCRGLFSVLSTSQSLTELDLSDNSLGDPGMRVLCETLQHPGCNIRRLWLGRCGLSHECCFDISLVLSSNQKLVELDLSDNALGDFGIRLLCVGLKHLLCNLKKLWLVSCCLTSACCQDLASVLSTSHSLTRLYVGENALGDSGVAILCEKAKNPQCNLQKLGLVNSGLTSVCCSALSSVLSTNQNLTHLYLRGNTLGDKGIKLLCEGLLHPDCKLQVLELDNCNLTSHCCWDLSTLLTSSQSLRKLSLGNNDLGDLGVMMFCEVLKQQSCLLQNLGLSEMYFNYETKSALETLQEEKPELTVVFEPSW

Regarding `CC(=O)N1CC[C@@H]2OCCN(c3ccc(-c4c(C)cc(C)cc4O)nn3)[C@@H]2C1` (racemic) [Example 213, 1-[rac-(4aR,8aS)-4-[6-(2-hydroxy-4,6-dimethyl-phenyl)pyridazin-3-yl]-3,4a,5,7,8,8a-hexahydro-2H-pyrido[4,3-b][1,4]oxazin-6-yl]ethanone], the IC50 on NLRP3 inflammasome is 115 nM; in assay [1], more than 10000 nM.

With `CC(=O)N1CC[C@H]2OCCN(c3ccc(-c4c(C)cc(C(F)(F)F)cc4O)nn3)[C@H]2C1` (racemic) [Example 214, 1-[rac-(4aS,8aR)-4-[6-[2-hydroxy-6-methyl-4-(trifluoromethyl)phenyl]pyridazin-3-yl]-3,4a,5,7,8,8a-hexahydro-2H-pyrido[4,3-b][1,4]oxazin-6-yl]ethanone], the IC50 at NLRP3 inflammasome is 36 nM; in assay [1], more than 10000 nM.

On to `Cc1cc(Cl)cc(O)c1-c1ccc(N2CCO[C@H]3CCNC[C@H]32)nn1` (racemic) [Example 221, 2-[6-[rac-(4aR,8aS)-2,3,4a,5,6,7,8,8a-octahydropyrido[4,3-b][1,4]oxazin-4-yl]pyridazin-3-yl]-5-chloro-3-methyl-phenol], for which the figures for the IC50 (on NLRP3 inflammasome; in assay [1]) were 18 nM and more than 10000 nM, respectively.

Turning to `CC(=O)N1CC[C@@H]2OCCN(c3ccc(-c4c(C)cc(Cl)cc4O)nn3)[C@@H]2C1` (racemic) [Example 222, 1-[rac-(4aR,8aS)-4-[6-(4-chloro-2-hydroxy-6-methyl-phenyl)pyridazin-3-yl]-3,4a,5,7,8,8a-hexahydro-2H-pyrido[4,3-b][1,4]oxazin-6-yl]ethanone], the IC50 on NLRP3 inflammasome was 42 nM; in assay [1] it was more than 10000 nM.

For the molecule `CCN1CC[C@@H]2OCCN(c3ccc(-c4c(C)cc(Cl)cc4O)nn3)[C@@H]2C1` (racemic) [Example 223, 5-chloro-3-methyl-2-[6-[rac-(4aR,8aS)-6-ethyl-3,4a,5,7,8,8a-hexahydro-2H-pyrido[4,3-b][1,4]oxazin-4-yl]pyridazin-3-yl]phenol], the values for the IC50 (on NLRP3 inflammasome; in assay [1]) were 1 nM and more than 10000 nM, respectively.

Turning to `Cc1cc(Cl)cc(O)c1-c1ccc(N2CCO[C@H]3CCN(C)C[C@H]32)nn1` (racemic) [Example 224, 5-chloro-3-methyl-2-[6-[rac-(4aR,8aS)-6-methyl-3,4a,5,7,8,8a-hexahydro-2H-pyrido[4,3-b][1,4]oxazin-4-yl]pyridazin-3-yl]phenol], the IC50 on NLRP3 inflammasome is 1 nM; in assay [1], more than 10000 nM.

As for `Cc1cc(C)c(-c2ccc(N3CCO[C@H]4CCN(C)C[C@H]43)nn2)c(O)c1` (racemic) [Example 225, 2-[6-[rac-(4aR,8aS)-6-methyl-3,4a,5,7,8,8a-hexahydro-2H-pyrido[4,3-b][1,4]oxazin-4-yl]pyridazin-3-yl]-3,5-dimethyl-phenol], the IC50 was 3 nM on NLRP3 inflammasome and more than 10000 nM in assay [1].

Take `Cc1cc(C(F)(F)F)cc(O)c1-c1ccc(N2CCO[C@H]3CCN(C)C[C@H]32)nn1` (racemic) [Example 226, 2-[6-[rac-(4aR,8aS)-6-methyl-3,4a,5,7,8,8a-hexahydro-2H-pyrido[4,3-b][1,4]oxazin-4-yl]pyridazin-3-yl]-3-methyl-5-(trifluoromethyl)phenol]: the results for the IC50 (on NLRP3 inflammasome; in assay [1]) were 2 nM and more than 10000 nM, respectively.

Regarding `CC(=O)N1C[C@@H]2CCN(c3ccc(-c4c(C)cc(C(F)(F)F)cc4O)nn3)[C@@H]2C1` (racemic) [Example 228, 1-[rac-(3aS,6aS)-1-[6-[2-hydroxy-6-methyl-4-(trifluoromethyl)phenyl]pyridazin-3-yl]-2,3,3a,4,6,6a-hexahydropyrrolo[3,4-b]pyrrol-5-yl]ethanone], the IC50 on NLRP3 inflammasome was 271 nM; in assay [1], more than 10000 nM.

For the molecule `Cc1cc(C(F)(F)F)cc(O)c1-c1ccc(N2CC[C@H]3CNC[C@H]32)nn1` (racemic) [Example 229, 2-[6-[rac-(3aS,6aS)-3,3a,4,5,6,6a-hexahydro-2H-pyrrolo[3,4-b]pyrrol-1-yl]pyridazin-3-yl]-3-methyl-5-(trifluoromethyl)phenol], the IC50 on NLRP3 inflammasome is 42 nM; in assay [1], more than 10000 nM.

As to `CCN1C[C@@H]2CCN(c3ccc(-c4c(C)cc(C(F)(F)F)cc4O)nn3)[C@@H]2C1` (racemic) [Example 243, 2-[6-[rac-(3aS,6aS)-5-ethyl-2,3,3a,4,6,6a-hexahydropyrrolo[3,4-b]pyrrol-1-yl]pyridazin-3-yl]-3-methyl-5-(trifluoromethyl)phenol], the values for the IC50 (at NLRP3 inflammasome; in assay [1]) were 21 nM and more than 10000 nM, respectively.

For the molecule `Cc1cc(C(F)(F)F)cc(O)c1-c1ccc(N2CC[C@H]3CNC[C@H]3C2=O)nn1` (racemic) [Example 264, rac-(3aS,7aR)-5-[6-[2-hydroxy-6-methyl-4-(trifluoromethyl)phenyl]pyridazin-3-yl]-2,3,3a,6,7,7a-hexahydro-1H-pyrrolo[3,4-c]pyridin-4-one, hydrochloride], the IC50 at NLRP3 inflammasome is 69 nM; in assay [1], more than 10000 nM.

`Cc1cc(C(F)(F)F)cc(O)c1-c1ccc(N2CC[C@H]3CN(C)C[C@H]32)nn1` (racemic) [Example 265, 2-[6-[rac-(3aS,6aS)-5-methyl-2,3,3a,4,6,6a-hexahydropyrrolo[3,4-b]pyrrol-1-yl]pyridazin-3-yl]-3-methyl-5-(trifluoromethyl)phenol]: the results for the IC50 (at NLRP3 inflammasome; in assay [1]) were 314 nM and more than 10000 nM, respectively.

Take `Cc1cc(C(F)(F)F)cc(O)c1-c1ccc(N2CC[C@H]3CNC[C@@H]3C2=O)nn1` (racemic) [Example 269, rac-(3aS,7aS)-5-[6-[2-hydroxy-6-methyl-4-(trifluoromethyl)phenyl]pyridazin-3-yl]-2,3,3a,6,7,7a-hexahydro-1H-pyrrolo[3,4-c]pyridin-4-one, hydrochloride]: the IC50 at NLRP3 inflammasome is 404 nM; in assay [1], more than 10000 nM.

For the molecule `Cc1cc(N2CC[C@@H]3CCN(C)C[C@@H]32)nnc1-c1ccc(C(F)(F)F)cc1O` (racemic) [Example 340, 2-[4-methyl-6-[rac-(3aS,7aR)-6-methyl-3,3a,4,5,7,7a-hexahydro-2H-pyrrolo[2,3-c]pyridin-1-yl]pyridazin-3-yl]-5-(trifluoromethyl)phenol], the IC50 at NLRP3 inflammasome is 0.4 nM; in assay [1], more than 10000 nM.

For `Cc1ccc(-c2nnc(N3CC[C@@H]4CCN(C)C[C@@H]43)cc2C)c(O)c1` (racemic) [Example 341, 5-methyl-2-[4-methyl-6-[rac-(3aS,7aR)-6-methyl-3,3a,4,5,7,7a-hexahydro-2H-pyrrolo[2,3-c]pyridin-1-yl]pyridazin-3-yl]phenol], the IC50 was 1 nM at NLRP3 inflammasome and more than 10000 nM in assay [1].

Take `Cc1cc(C)c(-c2ccc(N3CC[C@@H]4CCN(C)C[C@@H]43)nn2)c(O)c1` (racemic) [Example 342, 3,5-dimethyl-2-[6-[rac-(3aS,7aR)-6-methyl-3,3a,4,5,7,7a-hexahydro-2H-pyrrolo[2,3-c]pyridin-1-yl]pyridazin-3-yl]phenol]: the IC50 on NLRP3 inflammasome is 2 nM; in assay [1] it was more than 10000 nM.

`CCN1C[C@@H]2OCCN(c3ccc(-c4c(C)cc(C(F)(F)F)cc4O)nn3)[C@@H]2C1` (racemic) [Example 361, 3-methyl-2-[6-[rac-(4aR,7aS)-6-ethyl-2,3,4a,5,7,7a-hexahydropyrrolo[3,4-b][1,4]oxazin-4-yl]pyridazin-3-yl]-5-(trifluoromethyl)phenol]: the figures for the IC50 (on NLRP3 inflammasome; in assay [1]) were 8 nM and more than 10000 nM, respectively.

For the molecule `Cc1cc(C(F)(F)F)cc(O)c1-c1ccc(N2CC[C@@H]3CCN(C)C[C@@H]32)nn1` (racemic) [Example 371, 2-[6-[rac-(3aS,7aR)-6-methyl-3,3a,4,5,7,7a-hexahydro-2H-pyrrolo[2,3-c]pyridin-1-yl]pyridazin-3-yl]-3-methyl-5-(trifluoromethyl)phenol], the IC50 on NLRP3 inflammasome was 1 nM; in assay [1], more than 10000 nM.

For the molecule `CCN1CC[C@H]2CCN(c3ccc(-c4c(C)cc(C(F)(F)F)cc4O)nn3)[C@H]2C1` (racemic) [Example 378, 2-[6-[rac-(3aS,7aR)-6-ethyl-3,3a,4,5,7,7a-hexahydro-2H-pyrrolo[2,3-c]pyridin-1-yl]pyridazin-3-yl]-3-methyl-5-(trifluoromethyl)phenol], the IC50 was 1 nM at NLRP3 inflammasome and more than 10000 nM in assay [1].

The record behind these values is patent US20240360151A1 (SANOFI, priority 2023, published 2024).
